Values joined by “and” are separate entries in the source; they are usually repeats but may differ in a detail not shown here. Equal values may be shown once.
Key:
[1] = system: Friend Leukemia Virus; test: Inhibition of Friend Leukemia Virus-induced splenomegaly in mice, compounds intraperitoneally 24 hours after virus (Example 1(a)); assay type: in vivo, BALB/c mice; details: dose 150 mg (so in the source); Table III second set
In short: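 BALB/c mice inoculated i.v. with 10^6 FFU Friend virus (spleen homogenate); compounds given i.p. 24 h later at 100 μg once, or 50, 100, 200 μg or 2×100 μg (second dose 24–48 h after first), two mice per group. Spleens weighed at day 10; percent inhibition from average spleen weights relative to negative and positive controls.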

[2] = target: T1, Radiation Leukemia Virus reverse transcriptase (Radiation murine leukemia virus, UniProt P11227); test: Reverse transcriptase assay of Radiation Leukemia Virus from B10.T(6R) cell supernatants (Example 3); assay type: biochemical; details: Table V; for CPM: replicate
T1 construct: the reverse transcriptase of Radiation Leukemia Virus; endogenous in cells
Description: Supernatants (10 ml/tube) from B10.T(6R) cells (Meruelo et al. J. Exp. Med. 147: 470-487, 1978) chronically infected with Radiation Leukemia Virus (RadLV) were obtained by centrifugation of cells in culture at 4° C., 3500 rpm for 15 minutes. The top 2/3 of the supernatant were removed and aliquots were incubated for 30 minutes on ice with the indicated amounts of hypericin or protohypericin. […] Thereafter, supernatants were centrifuged at 100,000×g using a TI70 rotor (Beckman Instruments) for 1 hour at 4° C. The pellet was […] and analyzed for reverse transcriptase activity as follows.
The reverse transcriptase assay was performed in a volume of 100 microliters containing the following components:
The reverse transcriptase assay provides a measure of the antiviral activity of the compounds tested by reference to the observed decrease in activity of this enzyme.
In Table V, "CPM" is "counts per minute", "Average" is the numerical average of CPM values within each group of animals.

[3] = system: retroviruses (virions); test: Direct inactivation of retroviruses (virions) in vitro (Example 10); assay type: biochemical, Radiation Leukemia Virus; details: Table IX
In short: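 RadLV-containing supernatants from chronically infected B10.T(6R) cells incubated 30 min on ice with hypericin or protohypericin. Virions then pelleted at 100,000×g for 1 h at 4° C and assayed for reverse transcriptase activity. EC50 is the micromolar concentration inhibiting 50% of virus.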

[4] = system: Friend Leukemia Virus; test: In vivo inhibition of Friend Leukemia Virus splenomegaly, intravenous 1-2 hours post infection (Example 10); parameters: species or system mice; details: Mus musculus, read-out: EC50 for FV-induced splenomegaly
Description: (3) In vivo inhibition of Friend Leukemia Virus Splenomegaly performed as described in Example 1 above except that the compounds were administered intravenously 1-2 hours post infection.
The results presented above in Table IX are presented as EC50 concentrations. These are the effective concentrations which inhibit 50% of the viruses in micromolar concentrations.

[5] = Antiviral activity of hypericin as a function of frequency of treatment in mouse studies; assay type: in vivo
Source text: The present inventors have also discovered that the antiviral activity of hypericin is a function of the frequency of treatment. […] While the foregoing observations in mice may not be applicable to other mammals or humans, those skilled in the art will appreciate that the frequency of treatment is subject to optimization, which can be determined by routine experimentation according to methods well known in the art, e.g. by establishing a matrix of dosage and frequency and assigning a group of experimental subjects to each point of the matrix. Design of this experiment should preferably also take into account the tissue accumulation properties of PAC compounds.

Cc1cc(O)c2c(=O)c3c(O)cc(O)c4c5c(O)cc(O)c6c(=O)c7c(O)cc(C)c8c1c2c(c34)c(c78)c65 [hypericin, Hypericin]
Average Spleen Weight [1]: 0.7707
Average CPM ([2]; 0.05 micrograms): 3,067 CPM
Average percent inhibition ([2]; 0.05 micrograms): 98.5%
CPM ([2]; 0.05 micrograms): 2,882 CPM and 3,252 CPM
Average CPM ([2]; 0.1 micrograms): 2,333 CPM
Average percent inhibition ([2]; 0.1 micrograms): 98.9%
CPM ([2]; 0.1 micrograms): 1,668 CPM and 2,998 CPM
Average CPM ([2]; 0.5 micrograms): 3,428.5 CPM
Average percent inhibition ([2]; 0.5 micrograms): 98.4%
CPM ([2]; 0.5 micrograms): 3,190 CPM and 3,667 CPM
Average CPM ([2]; 1 microgram): 4,097 CPM
Average percent inhibition ([2]; 1 microgram): 98.0%
CPM ([2]; 1 microgram): 4,504 CPM and 3,690 CPM
Average CPM ([2]; 5 micrograms): 11,778 CPM
Average percent inhibition ([2]; 5 micrograms): 94.4%
CPM ([2]; 5 micrograms): 12,224 CPM and 11,332 CPM
Average CPM ([2]; 10 micrograms): 9,007 CPM
Average percent inhibition ([2]; 10 micrograms): 95.7%
CPM ([2]; 10 micrograms): 8,912 CPM and 9,102 CPM
Average CPM ([2]; 50 micrograms): 4,575 CPM
Average percent inhibition ([2]; 50 micrograms): 97.8%
CPM ([2]; 50 micrograms): 5,434 CPM and 3,716 CPM
Average CPM ([2]; 100 micrograms): 1,830 CPM
Average percent inhibition ([2]; 100 micrograms): 99.0%
CPM ([2]; 100 micrograms): 1,502 CPM and 2,158 CPM
EC50 [3]: 60 nM
EC50 [4]: 120 nM
antiviral activity vs frequency of treatment ([5]; 10 micrograms every day for ten days): less effective than even a single 10-microgram dose
antiviral activity vs frequency of treatment ([5]; 10 micrograms once a week): as effective as the single 10-microgram dose
antiviral activity vs dose ([5]; single dose of ten micrograms per mouse): less effective than a single dose of 100 micrograms per mouse
